# From ChEMBL document CHEMBL4196076, “An access to a library of novel triterpene derivatives with a promising pharmacological potential by Ugi and Passerini multicomponent reactions” (Eur J Med Chem, 2018)
# Tested on: NIH3T3
# Experiment: Cytotoxicity against mouse NIH/3T3 cells after 96 hrs by sulforhodamine-B assay
# Assay type: cell-based
# Conditions: NIH3T3, 96 h
row,Compound,EC50 [µM]
1,C=CCN(CC(=O)NC(C)(C)C)C(=O)[C@]12CCC(C)(C)C[C@H]1C1=CC[C@@H]3[C@@]4(C)CC[C@H](O)C(C)(C)[C@@H]4CC[C@@]3(C)[C@]1(C)CC2,15.5
2,CC(=O)O[C@H]1CC[C@]2(C)[C@H]3CC=C4[C@@H]5CC(C)(C)CC[C@]5(C(=O)N(CC(=O)NCc5ccccc5)Cc5ccccc5)CC[C@@]4(C)[C@]3(C)CC[C@H]2C1(C)C,> 30
3,CC(=O)O[C@@H]1C[C@]2(C)[C@H]3CC=C4[C@@H]5CC(C)(C)CC[C@]5(C(=O)N(CC(=O)NC(C)(C)C)Cc5ccoc5)CC[C@@]4(C)[C@]3(C)CC[C@H]2C(C)(C)[C@H]1OC(C)=O,7.3
4,CC(=O)O[C@H]1CC[C@]2(C)[C@H]3CC=C4[C@@H]5CC(C)(C)CC[C@]5(C(=O)OCC(=O)NCc5ccccc5)CC[C@@]4(C)[C@]3(C)CC[C@H]2C1(C)C,6.4
5,CC(=O)O[C@H]1CC[C@]2(C)[C@H]3CC=C4[C@@H]5CC(C)(C)CC[C@]5(C(=O)N(CC(=O)NC(C)(C)C)Cc5ccoc5)CC[C@@]4(C)[C@]3(C)CC[C@H]2C1(C)C,> 30

# Tested on: MCF7
# Experiment: Cytotoxicity against human MCF7 cells after 96 hrs by sulforhodamine-B assay
# Assay type: functional, cell-based
# Conditions: MCF7, 96 h
row,Compound,EC50 [µM]
1,C=CCN(CC(=O)NC(C)(C)C)C(=O)[C@]12CCC(C)(C)C[C@H]1C1=CC[C@@H]3[C@@]4(C)CC[C@H](O)C(C)(C)[C@@H]4CC[C@@]3(C)[C@]1(C)CC2,7
2,CC(=O)O[C@H]1CC[C@]2(C)[C@H]3CC=C4[C@@H]5CC(C)(C)CC[C@]5(C(=O)N(CC(=O)NCc5ccccc5)Cc5ccccc5)CC[C@@]4(C)[C@]3(C)CC[C@H]2C1(C)C,> 30
3,CC(=O)O[C@@H]1C[C@]2(C)[C@H]3CC=C4[C@@H]5CC(C)(C)CC[C@]5(C(=O)N(CC(=O)NC(C)(C)C)Cc5ccoc5)CC[C@@]4(C)[C@]3(C)CC[C@H]2C(C)(C)[C@H]1OC(C)=O,4
4,CC(=O)O[C@H]1CC[C@]2(C)[C@H]3CC=C4[C@@H]5CC(C)(C)CC[C@]5(C(=O)OCC(=O)NCc5ccccc5)CC[C@@]4(C)[C@]3(C)CC[C@H]2C1(C)C,6.4
5,CC(=O)O[C@H]1CC[C@]2(C)[C@H]3CC=C4[C@@H]5CC(C)(C)CC[C@]5(C(=O)N(CC(=O)NC(C)(C)C)Cc5ccoc5)CC[C@@]4(C)[C@]3(C)CC[C@H]2C1(C)C,19.8

# Tested on: HT-29
# Experiment: Cytotoxicity against human HT-29 cells after 96 hrs by sulforhodamine-B assay
# Assay type: functional, cell-based
# Conditions: HT-29, 96 h
row,Compound,EC50 [µM]
1,C=CCN(CC(=O)NC(C)(C)C)C(=O)[C@]12CCC(C)(C)C[C@H]1C1=CC[C@@H]3[C@@]4(C)CC[C@H](O)C(C)(C)[C@@H]4CC[C@@]3(C)[C@]1(C)CC2,9.9
2,CC(=O)O[C@H]1CC[C@]2(C)[C@H]3CC=C4[C@@H]5CC(C)(C)CC[C@]5(C(=O)N(CC(=O)NCc5ccccc5)Cc5ccccc5)CC[C@@]4(C)[C@]3(C)CC[C@H]2C1(C)C,> 30
3,CC(=O)O[C@@H]1C[C@]2(C)[C@H]3CC=C4[C@@H]5CC(C)(C)CC[C@]5(C(=O)N(CC(=O)NC(C)(C)C)Cc5ccoc5)CC[C@@]4(C)[C@]3(C)CC[C@H]2C(C)(C)[C@H]1OC(C)=O,3.4
4,CC(=O)O[C@H]1CC[C@]2(C)[C@H]3CC=C4[C@@H]5CC(C)(C)CC[C@]5(C(=O)OCC(=O)NCc5ccccc5)CC[C@@]4(C)[C@]3(C)CC[C@H]2C1(C)C,11.3
5,CC(=O)O[C@H]1CC[C@]2(C)[C@H]3CC=C4[C@@H]5CC(C)(C)CC[C@]5(C(=O)N(CC(=O)NC(C)(C)C)Cc5ccoc5)CC[C@@]4(C)[C@]3(C)CC[C@H]2C1(C)C,> 30

# Tested on: FaDu
# Experiment: Cytotoxicity against human FADU cells after 96 hrs by sulforhodamine-B assay
# Assay type: functional, cell-based
# Conditions: not given
row,Compound,EC50 [µM]
1,C=CCN(CC(=O)NC(C)(C)C)C(=O)[C@]12CCC(C)(C)C[C@H]1C1=CC[C@@H]3[C@@]4(C)CC[C@H](O)C(C)(C)[C@@H]4CC[C@@]3(C)[C@]1(C)CC2,26
2,CC(=O)O[C@H]1CC[C@]2(C)[C@H]3CC=C4[C@@H]5CC(C)(C)CC[C@]5(C(=O)N(CC(=O)NCc5ccccc5)Cc5ccccc5)CC[C@@]4(C)[C@]3(C)CC[C@H]2C1(C)C,20.3
3,CC(=O)O[C@@H]1C[C@]2(C)[C@H]3CC=C4[C@@H]5CC(C)(C)CC[C@]5(C(=O)N(CC(=O)NC(C)(C)C)Cc5ccoc5)CC[C@@]4(C)[C@]3(C)CC[C@H]2C(C)(C)[C@H]1OC(C)=O,3
4,CC(=O)O[C@H]1CC[C@]2(C)[C@H]3CC=C4[C@@H]5CC(C)(C)CC[C@]5(C(=O)OCC(=O)NCc5ccccc5)CC[C@@]4(C)[C@]3(C)CC[C@H]2C1(C)C,7.2
5,CC(=O)O[C@H]1CC[C@]2(C)[C@H]3CC=C4[C@@H]5CC(C)(C)CC[C@]5(C(=O)N(CC(=O)NC(C)(C)C)Cc5ccoc5)CC[C@@]4(C)[C@]3(C)CC[C@H]2C1(C)C,29.1

# Tested on: A549
# Experiment: Cytotoxicity against human A549 cells after 96 hrs by sulforhodamine-B assay
# Assay type: functional, cell-based
# Conditions: A549, 96 h
row,Compound,EC50 [µM]
1,C=CCN(CC(=O)NC(C)(C)C)C(=O)[C@]12CCC(C)(C)C[C@H]1C1=CC[C@@H]3[C@@]4(C)CC[C@H](O)C(C)(C)[C@@H]4CC[C@@]3(C)[C@]1(C)CC2,27.7
2,CC(=O)O[C@H]1CC[C@]2(C)[C@H]3CC=C4[C@@H]5CC(C)(C)CC[C@]5(C(=O)N(CC(=O)NCc5ccccc5)Cc5ccccc5)CC[C@@]4(C)[C@]3(C)CC[C@H]2C1(C)C,> 30
3,CC(=O)O[C@@H]1C[C@]2(C)[C@H]3CC=C4[C@@H]5CC(C)(C)CC[C@]5(C(=O)N(CC(=O)NC(C)(C)C)Cc5ccoc5)CC[C@@]4(C)[C@]3(C)CC[C@H]2C(C)(C)[C@H]1OC(C)=O,3.5
4,CC(=O)O[C@H]1CC[C@]2(C)[C@H]3CC=C4[C@@H]5CC(C)(C)CC[C@]5(C(=O)OCC(=O)NCc5ccccc5)CC[C@@]4(C)[C@]3(C)CC[C@H]2C1(C)C,6.9
5,CC(=O)O[C@H]1CC[C@]2(C)[C@H]3CC=C4[C@@H]5CC(C)(C)CC[C@]5(C(=O)N(CC(=O)NC(C)(C)C)Cc5ccoc5)CC[C@@]4(C)[C@]3(C)CC[C@H]2C1(C)C,24.2

# Tested on: 518A2
# Experiment: Cytotoxicity against human 518A2 cells after 96 hrs by sulforhodamine-B assay
# Assay type: functional, cell-based
# Conditions: 518A2, 96 h
row,Compound,EC50 [µM]
1,C=CCN(CC(=O)NC(C)(C)C)C(=O)[C@]12CCC(C)(C)C[C@H]1C1=CC[C@@H]3[C@@]4(C)CC[C@H](O)C(C)(C)[C@@H]4CC[C@@]3(C)[C@]1(C)CC2,24.4
2,CC(=O)O[C@H]1CC[C@]2(C)[C@H]3CC=C4[C@@H]5CC(C)(C)CC[C@]5(C(=O)N(CC(=O)NCc5ccccc5)Cc5ccccc5)CC[C@@]4(C)[C@]3(C)CC[C@H]2C1(C)C,13.5
3,CC(=O)O[C@@H]1C[C@]2(C)[C@H]3CC=C4[C@@H]5CC(C)(C)CC[C@]5(C(=O)N(CC(=O)NC(C)(C)C)Cc5ccoc5)CC[C@@]4(C)[C@]3(C)CC[C@H]2C(C)(C)[C@H]1OC(C)=O,3.9
4,CC(=O)O[C@H]1CC[C@]2(C)[C@H]3CC=C4[C@@H]5CC(C)(C)CC[C@]5(C(=O)OCC(=O)NCc5ccccc5)CC[C@@]4(C)[C@]3(C)CC[C@H]2C1(C)C,7.7
5,CC(=O)O[C@H]1CC[C@]2(C)[C@H]3CC=C4[C@@H]5CC(C)(C)CC[C@]5(C(=O)N(CC(=O)NC(C)(C)C)Cc5ccoc5)CC[C@@]4(C)[C@]3(C)CC[C@H]2C1(C)C,24.7

# Tested on: A2780
# Experiment: Cytotoxicity against human A2780 cells after 96 hrs by sulforhodamine-B assay
# Assay type: functional, cell-based
# Conditions: A2780, 96 h
row,Compound,EC50 [µM]
1,C=CCN(CC(=O)NC(C)(C)C)C(=O)[C@]12CCC(C)(C)C[C@H]1C1=CC[C@@H]3[C@@]4(C)CC[C@H](O)C(C)(C)[C@@H]4CC[C@@]3(C)[C@]1(C)CC2,10.5
2,CC(=O)O[C@H]1CC[C@]2(C)[C@H]3CC=C4[C@@H]5CC(C)(C)CC[C@]5(C(=O)N(CC(=O)NCc5ccccc5)Cc5ccccc5)CC[C@@]4(C)[C@]3(C)CC[C@H]2C1(C)C,5.4
3,CC(=O)O[C@@H]1C[C@]2(C)[C@H]3CC=C4[C@@H]5CC(C)(C)CC[C@]5(C(=O)N(CC(=O)NC(C)(C)C)Cc5ccoc5)CC[C@@]4(C)[C@]3(C)CC[C@H]2C(C)(C)[C@H]1OC(C)=O,0.4
4,CC(=O)O[C@H]1CC[C@]2(C)[C@H]3CC=C4[C@@H]5CC(C)(C)CC[C@]5(C(=O)OCC(=O)NCc5ccccc5)CC[C@@]4(C)[C@]3(C)CC[C@H]2C1(C)C,6.8
5,CC(=O)O[C@H]1CC[C@]2(C)[C@H]3CC=C4[C@@H]5CC(C)(C)CC[C@]5(C(=O)N(CC(=O)NC(C)(C)C)Cc5ccoc5)CC[C@@]4(C)[C@]3(C)CC[C@H]2C1(C)C,7.1
